According to patent US11807634B2, “Cyclopropyl dihydroquinoline sulfonamide compounds” (AMGEN INC., priority 2020, dated 2023):

Test system: CYP3A4
Test: Human CYP 3A4 induction assay (mRNA, cryopreserved human hepatocytes)
Assay type: in vitro ADME
Conditions: human hepatocytes, 10 uM test compound, 72 hours, mRNA, percent of control (rifampin positive control)
Experimental: Human CYP 3A4 Induction Assay
Cryopreserved human hepatocytes were seeded in 96-well collagen coated plates at 70,000 cells per well in hepatocyte plating media (HPM, final concentrations: 1× Dulbecco's Modified Eagle's Medium, 0.1 μM dexamethasone, 10% fetal bovine serum, 1× ITS, 1×PSG) followed by incubation at 37° C. under 5% CO2 and 90% relative humidity for 2 days to allow hepatocytes to form a confluent layer. On Day 3, hepatocytes were treated with either test compound or rifampin (20 μM, positive control for CYP3A induction) prepared in hepatocyte incubation media ((HIM, final concentrations: 1× William's Medium E, 0.1 μM dexamethasone, 1×ITS, 1×PSG). Treatment was performed for 72 hours with either 2 concentrations (2 μM or 10 μM) or a range of concentrations (0.001 μM to 100 μM) of the test compound to obtain full dose-response curve. Fresh media containing the relevant concentrations of the test compound was replaced every day until the samples were processed. After 72 hours of incubation, samples were processed for mRNA analysis using bDNA technology using manufacturer's instructions (Affymetrix, Fremont, Calif.). Cell viability was tested at the end of the experiment using MTT assay kit (Roche Diagnostics, Basel, Switzerland). Data was analyzed and presented as percent of control (POC) and Emax and EC50 obtained when appropriate according to guidance from Center for Drug Evaluation and Research (CDER), 2006, Guidance for Industry, Drug Interaction Studies—Study Design, Data Analysis, and Implications for Dosing and Labeling.
Cryopreserved human hepatocytes were seeded in 96-well collagen coated plates at 70,000 cells per well in hepatocyte plating media (HPM, final concentrations: 1× Dulbecco's Modified Eagle's Medium, 0.1 μM dexamethasone, 10% fetal bovine serum, 1×ITS, 1×PSG) followed by incubation at 37° C. under 5% CO2 and 90% relative humidity for 2 days to allow hepatocytes to form a confluent layer. On Day 3, hepatocytes were treated with either test compound or rifampin (20 μM, positive control for CYP3A induction) prepared in hepatocyte incubation media ((HIM, final concentrations: 1× William's Medium E, 0.1 μM dexamethasone, 1×ITS, 1×PSG). Treatment was performed for 72 hours with either 2 concentrations (2 μM or 10 μM) or a range of concentrations (0.001 μM to 100 μM) of the test compound to obtain full dose-response curve. Fresh media containing the relevant concentrations of the test compound was replaced every day until the samples were processed. After 72 hours of incubation, samples were processed for mRNA analysis using bDNA technology using manufacturer's instructions (Affymetrix, Fremont, Calif.). Cell viability was tested at the end of the experiment using MTT assay kit (Roche Diagnostics, Basel, Switzerland). Data was analyzed and presented as percent of control (POC) and Emax and EC50 obtained when appropriate, as described in Halladay, J. et al, 2012, An “all-inclusive” 96-well cytochrome P450 induction method: Measuring enzyme activity, mRNA levels, protein levels, and cytotoxicity from one well using cryopreserved human hepatocytes, Pharmacological and Toxicological Methods, 66:270-275.
The cytochrome P450 (CYP) is a well-known superfamily of enzymes that are responsible for the oxidative and reductive metabolic transformation of medications used in clinical practice. In addition, the CYP enzymes are commonly associated with causing many clinically relevant drug-drug interactions. Of the CYP enzymes, CYP3A4 is not only the most prevalent CYP enzyme in the liver and intestine, but is responsible for metabolism and elimination of approximately 50% of marketed drugs. In addition, CYP3A4 activity can be induced (or increased) or inhibited (decreased) in response to administration of certain drugs, thereby affecting concentrations of their own or certain concomitant drugs present in the body. […]

Row | CYP3A4 mRNA Induct Hu 10 uM POC [%] | Structure (SMILES)
1 | 27.54 | COc1cc([C@@H]2C[C@H]2c2ccccc2)c(F)cc1-n1c(=O)ccc2cc(S(=O)(=O)Nc3ccon3)ccc21 (atropisomer, axis not shown; (P)) [Example 8, (P)-1-(5-fluoro-2-methoxy-4-((1R,2R)-2-phenylcyclopropyl)phenyl)-N-(isoxazol-3-yl)-2-oxo-1,2-dihydroquinoline-6-sulfonamide]
2 | 26.89 | COc1cc([C@@H]2C[C@H]2C(F)(F)F)c(F)cc1-n1c(=O)cc(F)c2cc(S(=O)(=O)Nc3ccon3)ccc21 (atropisomer, axis not shown; (P)) [Example 44, (P)-4-fluoro-1-(5-fluoro-2-methoxy-4-((1R,2R)-2-(trifluoromethyl)cyclopropyl)phenyl)-N-(isoxazol-3-yl)-2-oxo-1,2-dihydroquinoline-6-sulfonamide]
3 | 37.04 | COc1cc([C@H]2C[C@@H]2C(F)(F)F)c(F)cc1-n1c(=O)ccc2cc(S(=O)(=O)Nc3cccnn3)ccc21 (atropisomer, axis not shown; (P)) [Example 17, (P)-1-(5-fluoro-2-methoxy-4-((1S,2S)-2-(trifluoromethyl)cyclopropyl)phenyl)-2-oxo-N-(pyridazin-3-yl)-1,2-dihydroquinoline-6-sulfonamide]
4 | 41.96 | COc1cc([C@@H]2C[C@H]2C(F)(F)F)c(F)cc1-n1c(=O)ccc2cc(S(=O)(=O)Nc3ccon3)ccc21 (atropisomer, axis not shown; (P)) [Example 5, (P)-1-(5-fluoro-2-methoxy-4-((1R,2R)-2-(trifluoromethyl)cyclopropyl)phenyl)-N-(isoxazol-3-yl)-2-oxo-1,2-dihydroquinoline-6-sulfonamide]
5 | 54.02 | COc1cc([C@H]2C[C@@H]2C(F)(F)F)ccc1-n1c(=O)ccc2cc(S(=O)(=O)Nc3ccon3)c(F)cc21 (atropisomer, axis not shown; (P)) [Example 48, (P)-7-fluoro-N-(isoxazol-3-yl)-1-(2-methoxy-4-((1S,2S)-2-(trifluoromethyl)cyclopropyl)phenyl)-2-oxo-1,2-dihydroquinoline-6-sulfonamide]
6 | 27.11 | COc1cc([C@@H]2C[C@H]2C(F)(F)F)c(F)cc1-n1c(=O)ccc2cc(S(=O)(=O)Nc3cccnn3)ccc21 (atropisomer, axis not shown; (P)) [Example 16, (P)-1-(5-fluoro-2-methoxy-4-((1R,2R)-2-(trifluoromethyl)cyclopropyl)phenyl)-2-oxo-N-(pyridazin-3-yl)-1,2-dihydroquinoline-6-sulfonamide]
7 | 29.85 | COc1cc([C@H]2C[C@@H]2C(F)(F)F)c(Cl)cc1-n1c(=O)ccc2cc(S(=O)(=O)Nc3ncccn3)ccc21 (atropisomer, axis not shown; (P)) [Example 12, (P)-1-(5-chloro-2-methoxy-4-((1S,2S)-2-(trifluoromethyl)cyclopropyl)phenyl)-2-oxo-N-(pyrimidin-2-yl)-1,2-dihydroquinoline-6-sulfonamide]
8 | 29.06 | COc1cc([C@@H]2C[C@H]2C(F)(F)F)ccc1-n1c(=O)ccc2cc(S(=O)(=O)Nc3ccon3)ccc21 (atropisomer, axis not shown; (P)) [Example 38, (P)-N-(isoxazol-3-yl)-1-(2-methoxy-4-((1R,2R)-2-(trifluoromethyl)cyclopropyl)phenyl)-2-oxo-1,2-dihydroquinoline-6-sulfonamide]
9 | 102.8 | COc1cc([C@H]2C[C@@H]2C(F)(F)F)c(F)cc1-n1c(=O)ccc2cc(S(=O)(=O)Nc3ncco3)ccc21 (atropisomer, axis not shown; (P)) [Example 36, (P)-1-(5-fluoro-2-methoxy-4-((1S,2S)-2-(trifluoromethyl)cyclopropyl)phenyl)-N-(oxazol-2-yl)-2-oxo-1,2-dihydroquinoline-6-sulfonamide]
10 | 38.35 | COc1cc([C@H]2C[C@@H]2C(F)(F)F)ccc1-n1c(=O)ccc2cc(S(=O)(=O)Nc3ccon3)ccc21 (atropisomer, axis not shown; (P)) [Example 39, (P)-N-(isoxazol-3-yl)-1-(2-methoxy-4-((1S,2S)-2-(trifluoromethyl)cyclopropyl)phenyl)-2-oxo-1,2-dihydroquinoline-6-sulfonamide]
11 | 23.36 | COc1cc([C@@H]2C[C@H]2C(F)(F)F)c(C)cc1-n1c(=O)ccc2cc(S(=O)(=O)Nc3ncccn3)ccc21 (atropisomer, axis not shown; (P)) [Example 28, (P)-1-(2-methoxy-5-methyl-4-((1R,2R)-2-(trifluoromethyl)cyclopropyl)phenyl)-2-oxo-N-(pyrimidin-2-yl)-1,2-dihydroquinoline-6-sulfonamide]
12 | 74.53 | COc1cc([C@H]2C[C@@H]2C(F)(F)F)c(C)cc1-n1c(=O)ccc2cc(S(=O)(=O)Nc3ncccn3)ccc21 (atropisomer, axis not shown; (P)) [Example 29, (P)-1-(2-methoxy-5-methyl-4-((1S,2S)-2-(trifluoromethyl)cyclopropyl)phenyl)-2-oxo-N-(pyrimidin-2-yl)-1,2-dihydroquinoline-6-sulfonamide]
13 | 41.2 | COc1cc([C@H]2C[C@@H]2C)c(F)cc1-n1c(=O)ccc2cc(S(=O)(=O)Nc3ccon3)ccc21 (atropisomer, axis not shown; (P)) [Example 7, (P)-1-(5-fluoro-2-methoxy-4-((1S,2S)-2-methylcyclopropyl)phenyl)-N-(isoxazol-3-yl)-2-oxo-1,2-dihydroquinoline-6-sulfonamide]
14 | 53.28 | COc1cc([C@@H]2C[C@H]2C(F)(F)F)c(F)cc1-n1c(=O)ccc2cc(S(=O)(=O)Nc3ncco3)ccc21 (atropisomer, axis not shown; (P)) [Example 35, (P)-1-(5-fluoro-2-methoxy-4-((1R,2R)-2-(trifluoromethyl)cyclopropyl)phenyl)-N-(oxazol-2-yl)-2-oxo-1,2-dihydroquinoline-6-sulfonamide]
15 | 34.81 | COc1cc([C@H]2C[C@@H]2C(F)(F)F)c(F)cc1-n1c(=O)ccc2cc(S(=O)(=O)Nc3ncccn3)ccc21 (atropisomer, axis not shown; (P)) [Example 21, (P)-1-(5-fluoro-2-methoxy-4-((1S,2S)-2-(trifluoromethyl)cyclopropyl)phenyl)-2-oxo-N-(pyrimidin-2-yl)-1,2-dihydroquinoline-6-sulfonamide]
16 | 88.68 | COc1cc(C2(C(F)(F)F)CC2)c(Cl)cc1-n1c(=O)ccc2cc(S(=O)(=O)Nc3ncccn3)ccc21 (atropisomer, axis not shown; (P)) [Example 25, (P)-1-(5-chloro-2-methoxy-4-(1-(trifluoromethyl)cyclopropyl)phenyl)-2-oxo-N-(pyrimidin-2-yl)-1,2-dihydroquinoline-6-sulfonamide]
17 | 12.69 | COc1cc([C@@H]2C[C@H]2C(F)(F)F)c(F)cc1-n1c(=O)ccc2cc(S(=O)(=O)Nc3ncns3)ccc21 (atropisomer, axis not shown; (P)) [Example 34, (P)-1-(5-fluoro-2-methoxy-4-((1R,2R)-2-(trifluoromethyl)cyclopropyl)phenyl)-2-oxo-N-(1,2,4-thiadiazol-5-yl)-1,2-dihydroquinoline-6-sulfonamide]
18 | 92.47 | COc1cc([C@@H]2C[C@H]2C(F)(F)F)c(Cl)cc1-n1c(=O)ccc2cc(S(=O)(=O)Nc3ncccn3)ccc21 (atropisomer, axis not shown; (P)) [Example 13, (P)-1-(5-chloro-2-methoxy-4-((1R,2R)-2-(trifluoromethyl)cyclopropyl)phenyl)-2-oxo-N-(pyrimidin-2-yl)-1,2-dihydroquinoline-6-sulfonamide]
